This assay addresses human RIP1 kinase domain (2-375) (Homo sapiens (Human), UniProt Q13546). As to the kind of experiment: biochemical. The format is biochemical. The settings on record: 50 uM ATP. Summed up:
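50 nM purified kinase domain from baculovirus-infected insect cells, incubated 2 h with compound in 50 mM Hepes pH 7.5, 30 mM MgCl2, 1 mM DTT, 50 uM ATP, 0.002% Brij-35, 0.5% DMSO. ADP formation read by Transcreener FP at 633 nm excitation. Ki^app fitted with the Morrison tight-binding equation.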

Setting [1] is: tight-binding apparent inhibition constant, human RIP1 kinase domain (2-375) 50 nM, 2 hours, read-out: Ki.
Setting [2] is: human RIP1 kinase domain (2-375), Transcreener ADP assay, 2 hours incubation, read-out: RIP1 Ki.
Setting [3] is: Table 1, apparent Ki (Morrison tight-binding fit), 50 nM RIP1 kinase domain, 2 hours incubation, read-out: RIP1 Ki.
Where [4] appears, read: human RIP1 kinase domain (2-375), 2 hours incubation, Transcreener ADP assay, read-out: RIP1 Ki.
The mark [5] stands for this setting: Table 5, apparent Ki (Morrison tight-binding fit), 50 nM RIP1 kinase domain, 2 hours incubation, read-out: Ki.

The text below walks through data of patent US10988459B2 (priority 2015, dated 2021).

Read-outs that look alike come from different tables or passages of the source.

Sequence of human RIP1 kinase domain (2-375) (Q13546 2-375): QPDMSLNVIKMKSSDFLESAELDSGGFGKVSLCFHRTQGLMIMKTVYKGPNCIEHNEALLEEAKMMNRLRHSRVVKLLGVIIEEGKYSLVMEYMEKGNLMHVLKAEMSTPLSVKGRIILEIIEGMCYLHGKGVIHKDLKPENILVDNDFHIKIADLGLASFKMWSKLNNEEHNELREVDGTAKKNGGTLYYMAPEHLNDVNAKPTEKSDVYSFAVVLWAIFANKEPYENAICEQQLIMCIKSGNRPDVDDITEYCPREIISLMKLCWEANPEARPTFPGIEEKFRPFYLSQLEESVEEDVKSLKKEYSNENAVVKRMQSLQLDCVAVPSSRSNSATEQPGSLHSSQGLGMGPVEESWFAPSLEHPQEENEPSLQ

As to `CN1C(=O)[C@@H](NC(=O)c2nc3n(n2)C(C2CCCCC2)CCC3)COc2ccccc21` (stereo partly drawn) [Example 377, 5-cyclohexyl-N—((S)-5-methyl-4-oxo-2,3,4,5-tetrahydrobenzo[b][1,4]oxazepin-3-yl)-5,6,7,8-tetrahydro-[1,2,4]triazolo[1,5-a]pyridine-2-carboxamide], the Ki under setting [1] came out at 10.8 nM.
Take `CN1C(=O)[C@@H](NC(=O)c2ncn(Cc3c(F)cccc3F)n2)CCn2nc(C3CC3)cc21` [Example 302, (S)—N-(2-cyclopropyl-4-methyl-5-oxo-5,6,7,8-tetrahydro-4H-pyrazolo[1,5-a][1,3]diazepin-6-yl)-1-(2,6-difluorobenzyl)-1H-1,2,4-triazole-3-carboxamide]: the Ki under setting [2] stood at 26.8 nM.
Consider `CC[C@]1(C)OCc2cnc(C(=O)N[C@H]3COc4ccccc4N(C)C3=O)nc21` (racemic) [Example 685, rac-(7S)-7-ethyl-7-methyl-N-[rac-(3S)-5-methyl-4-oxo-2,3-dihydro-1,5-benzoxazepin-3-yl]-5H-furo[3,4-d] pyrimidine-2-carboxamide], for which, under setting [1], the Ki turned out to be 21.4 nM.
For the compound `CC[C@@]1(C)OCc2cnc(C(=O)N[C@H]3CCn4nc(C)cc4N(C)C3=O)cc21` [Example 275, (R)—N—((S)-2,4-dimethyl-5-oxo-5,6,7,8-tetrahydro-4H-pyrazolo[1,5-a][1,3]diazepin-6-yl)-1-ethyl-1-methyl-1,3-dihydrofuro[3,4-c]pyridine-6-carboxamide], the Ki under setting [2] was 1100 nM.
On to `Cc1cn2c(n1)N(C)C(=O)[C@H](NC(=O)c1ncn(Cc3ccccc3)n1)CC2` (racemic) [Example 693, 1-benzyl-N-[rac-(7R)-2,9-dimethyl-8-oxo-6,7-dihydro-5H-imidazo[1,2-a][1,3]diazepin-7-yl]-1,2,4-triazole-3-carboxamide], for which the Ki under setting [1] stood at 30.5 nM.
With `CC1CCc2cnc(C(=O)N[C@H]3COc4ccccc4N(C)C3=O)n2C1` (stereo partly drawn) [Example 11, 6-methyl-N—((S)-5-methyl-4-oxo-2,3,4,5-tetrahydrobenzo[b][1,4]oxazepin-3-yl)-5,6,7,8-tetrahydroimidazo[1,5-a]pyridine-3-carboxamide], the Ki under setting [3] came out at 329 nM.
On to `Cc1cc2n(n1)CC[C@H](NC(=O)c1nc3n(n1)CCOC31CCCC1)C(=O)N2C` [Example 567, N-[(6S)-2,4-dimethyl-5-oxo-7,8-dihydro-6H-pyrazolo[1,5-a][1,3]diazepin-6-yl]spiro[5,6-dihydro-[1,2,4]triazolo[5,1-c][1,4]oxazine-8,1′-cyclopentane]-2-carboxamide], for which, under setting [1], the Ki was found to be 410 nM.
`Cc1ncccc1Cn1cnc(C(=O)N[C@H]2CCn3nccc3N(C)C2=O)n1` [Example 663, 1-[(2-methyl-3-pyridyl)methyl]-N-(6S)-4-methyl-5-oxo-7,8-dihydro-6H-pyrazolo[1,5-a][1,3]diazepin-6-yl-1,2,4-triazole-3-carboxamide]: the Ki under setting [1] is 420 nM.
On to `CC[C@H]1C[C@@H](Cn2cnc(C(=O)N[C@H]3CCn4nc(C)cc4N(C)C3=O)n2)C1` [Example 500, N—((S)-2,4-dimethyl-5-oxo-5,6,7,8-tetrahydro-4H-pyrazolo[1,5-a][1,3]diazepin-6-yl)-1-(((1R,3R)-3-ethylcyclobutyl)methyl)-1H-1,2,4-triazole-3-carboxamide], for which, under setting [1], the Ki was 36 nM.
With `CC(C)c1cnc2[nH]nc(C(=O)N[C@H]3COc4ccccc4N(C)C3=O)c2c1` [Example 238, (S)-5-isopropyl-N-(5-methyl-4-oxo-2,3,4,5-tetrahydrobenzo[b][1,4]oxazepin-3-yl)-1H-pyrazolo[3,4-b]pyridine-3-carboxamide], the Ki under setting [2] amounted to 54.7 nM.
With `CN1C(=O)[C@@H](NC(=O)c2ncn(Cc3ncccc3F)n2)CCn2nc(C3CC3)cc21` [Example 655], the Ki under setting [1] stood at 140 nM.
In the case of `CC(C)n1ncc2c1OC[C@H](NC(=O)c1cn(Cc3ccc(F)c(F)c3)cn1)C(=O)N2C` [Example 180, (S)-1-(3,4-difluorobenzyl)-N-(1-isopropyl-4-methyl-5-oxo-4,5,6,7-tetrahydro-1H-pyrazolo[3,4-b][1,4]oxazepin-6-yl)-1H-imidazole-4-carboxamide], the Ki under setting [4] was found to be 8500 nM.
Take `CN1C(=O)[C@@H](NC(=O)c2ncn(Cc3ccccc3)n2)CCn2nc(C3(F)CC3)cc21` [Example 570, 1-benzyl-N-(6S)-2-(1-fluorocyclopropyl)-4-methyl-5-oxo-7,8-dihydro-6H-pyrazolo[1,5-a][1,3]diazepin-6-yl-1,2,4-triazole-3-carboxamide]: the Ki under setting [1] stood at 24 nM.
Regarding `CC(C)c1cccc2nc(C(=O)N[C@H]3COc4cc(F)cc(F)c4NC3=O)nn12` [Example 424, (S)—N-(6,8-difluoro-4-oxo-2,3,4,5-tetrahydrobenzo[b][1,4]oxazepin-3-yl)-5-isopropyl-[1,2,4]triazolo[1,5-a]pyridine-2-carboxamide], the Ki under setting [1] came to 3 nM.
Consider `CN1C(=O)[C@@H](NC(=O)c2nc3n(n2)CCO[C@H]3c2ccccc2)COc2ccccc21` [Example 516, (8S)-8-phenyl-N-[(3S)-5-methyl-4-oxo-2,3-dihydro-1,5-benzoxazepin-3-yl]-6,8-dihydro-5H-[1,2,4]triazolo[5,1-c][1,4]oxazine-2-carboxamide], for which the Ki under setting [1] worked out at 18 nM.
Take `CN1C(=O)[C@@H](NC(=O)c2nc3cccc(-c4ccccc4)n3n2)CCn2nccc21` [Example 375, (S)—N-(4-methyl-5-oxo-5,6,7,8-tetrahydro-4H-pyrazolo[1,5-a][1,3]diazepin-6-yl)-5-phenyl-[1,2,4]triazolo[1,5-a]pyridine-2-carboxamide]: under setting [1], the Ki turned out to be 28 nM.
For `CC1CCc2noc(C(=O)N[C@H]3COc4ccccc4N(C)C3=O)c2C1` (stereo partly drawn) [Example 66, 5-methyl-N-((S)-5-methyl-4-oxo-2,3,4,5-tetrahydrobenzo[b][1,4]oxazepin-3-yl)-4,5,6,7-tetrahydrobenzo[c]isoxazole-3-carboxamide], the Ki under setting [3] worked out at 37.4 nM.
Turning to `CN1C(=O)[C@@H](NC(=O)c2nnc3ccc(Cl)nn23)COc2ccccc21` [Example 52, (S)-6-chloro-N-(5-methyl-4-oxo-2,3,4,5-tetrahydrobenzo[b][1,4]oxazepin-3-yl)-[l,2,4]triazolo[4,3-b]pyridazinc-3-carboxamide], under setting [3], the Ki is 1200 nM.
`CC[C@@]1(C)OCc2cnc(C(=O)N[C@H]3CCn4nc(C)cc4N(C)C3=O)nc21` (racemic) [Example 687, rac-(7R)-7-ethyl-7-methyl-N-[rac-(6S)-2,4-dimethyl-5-oxo-7,8-dihydro-6H-pyrazolo[1,5-a][1,3]diazepin-6-yl]-5H-furo[3,4-d]pyrimidine-2-carboxamide]: the Ki under setting [1] stood at 251 nM.
As for `CCC1Cc2c(C(=O)N[C@H]3COc4ccccc4N(C)C3=O)n[nH]c2CO1` (stereo partly drawn) [Example 186, 5-ethyl-N—((S)-5-methyl-4-oxo-2,3,4,5-tetrahydrobenzo[b][1,4]oxazepin-3-yl)-1,4,5,7-tetrahydropyrano[3,4-c]pyrazole-3-carboxamide], the Ki under setting [4] worked out at 135 nM.
As for `Cc1ncn2c1N(C)C(=O)C(NC(=O)c1ncn(Cc3ccccc3)n1)CC2` (centres unmarked) [Example 215, 1-benzyl-N-(1,9-dimethyl-2-oxo-2,3,4,5-tetrahydro-1H-imidazo[1,5-a][1,3]diazepin-3-yl)-1H-1,2,4-triazole-3-carboxamide], the Ki under setting [4] was determined as 106 nM.
Turning to `CN1C(=O)[C@@H](NC(=O)c2nc3n(n2)[C@@H](c2ccccc2)CCC3)CCn2nccc21` (racemic) [Example 385, (R)—N—((S)-4-methyl-5-oxo-5,6,7,8-tetrahydro-4H-pyrazolo[1,5-a][1,3]diazepin-6-yl)-5-phenyl-5,6,7,8-tetrahydro-[1,2,4]triazolo[1,5-a]pyridine-2-carboxamide], the Ki under setting [1] was found to be 24.4 nM.
As to `O=C(N[C@H]1COc2cc(F)cc(F)c2NC1=O)c1n[nH]c2c1C[C@@H](C(F)(F)F)CC2` (single isomer, unassigned) [Example 86], the Ki under setting [4] worked out at 20.8 nM.
On to `CN1C(=O)[C@@H](NC(=O)c2nc3n(n2)[C@H](c2ccccc2)CC3)CCn2nccc21` (single isomer, unassigned) [Example 363], for which the Ki under setting [1] was 21.2 nM.
`Cc1nc(-c2cc3n(n2)CCC(NC(=O)c2ncn(Cc4ccccc4)n2)C(=O)N3C)cn1C` (racemic) [Example 776, 1-benzyl-N-(2-(1,2-dimethyl-1H-imidazol-4-yl)-4-methyl-5-oxo-5,6,7,8-tetrahydro-4H-pyrazolo[1,5-a][1,3]diazepin-6-yl)-1H-1,2,4-triazole-3-carboxamide]: the Ki under setting [5] was found to be 212 nM.
Still for that read-out and setting: the figure for `CN1C(=O)[C@@H](NC(=O)c2ncn(Cc3ccccc3)n2)CCn2nc(CO)cc21` (single isomer, unassigned) [Example 732] is 61 nM.
On to `CN1C(=O)[C@@H](NC(=O)c2ncn(Cc3ccccc3)n2)CCn2nc(CC3CCOCC3)cc21` [Example 774, 1-benzyl-N-[(6S)-4methyl-5-oxo-2-(tetrahydropyran-4-ylmethyl)-7,8-dihydro-6H-pyrazolo[1,5-a][1,3]diazepin-6-yl]-1,2,4-triazole-3-carboxamide], for which, under setting [5], the Ki amounted to 37 nM.
With `CCC1CCc2n[nH]c(C(=O)N[C@H]3COc4ccccc4N(C)C3=O)c2C1` (stereo partly drawn) [Example 335, 5-ethyl-N-((S)-5-methyl-4-oxo-2,3,4,5-tetrahydrobenzo[b][1,4]oxazepin-3-yl)-4,5,6,7-tetrahydro-2H-indazole-3-carboxamide], where the note is “Table 3, apparent Ki (Morrison tight-binding fit), 50 nM RIP1 kinase domain, 2 hours incubation, read-out: Ki”, the Ki turned out to be 13 nM.
With `O=C(N[C@H]1COc2cc(F)cc(F)c2NC1=O)c1nc2n(n1)[C@H](C(F)(F)F)CCC2` (single isomer, unassigned) [Example 432], under setting [1], the Ki turned out to be 12.7 nM.
